{"source": "patent US8039505B2", "about": "“Compounds for modulating T-cells” (University of Utah Research Foundation, priority 2007, dated 2011)", "test_system": "cell cycle in zebrafish embryos", "experiment": "Cell cycle profiles in zebrafish embryos (propidium iodide, flow cytometry)", "format": "in vivo", "conditions": "zebrafish embryos incubated from 4 hours post fertilization overnight, DNA content by flow cytometry", "protocol": "FIG. 2 is a group of cell cycle profiles of active compounds tested in 24 hour zebrafish embryos. Specifically, embryos incubated with E3 fishwater (panel A), hydroxyurea (panel B), compound C4 (panel C), and compound C3 (panel D) are shown. After overnight incubation, single cell solution of embryos was prepared and incubated with propidium iodide. Samples were then subjected to flow cytometry to determine DNA content (X axis). Small arrowheads below the X-axis are placed beneath the diploid (G1) n=2 peak, and the tetraploid (G2/M) n=4 peaks. Cells between these two peaks are in S phase. Cells to the left of the G1 peak (sub G1 peak) have lost chromosomes (n<2), and are presumably dying (indicated as % debris in the right hand legend of each panel). Relative numbers of cells (Y-axis) in the different phases of the cell cycle are given on the right side of each panel.\nAll of these compounds were tested for effects on the cell cycle in zebrafish embryos. Zebrafish embryos were incubated at 4 hours post fertilization with compounds or controls. After overnight incubation in compounds, single cell solution of embryos was prepared and incubated with propidium iodide. Samples were then subjected to flow cytometry to determine DNA content. […] Examples are depicted in FIG. 2.\nIn FIG. 2, embryos incubated with (A) E3 fishwater, (B) hydroxyurea, (C) compound C4, and (D) C3 are shown. Diploid (G1, n=2) and tetraploid (G2/M, n=4) peaks are identified on the X-axis. Small arrowheads below the X-axis are placed beneath the dipoid (G1) n=2 peak, and the tetraploid (G2/M) n=4 peaks. Cells between these two peaks are in S phase. Cells to the left of the G1 peak (sub G1 peak) have lost chromosomes (n<2) and are presumably dying (indicated as % debris in the right hand legend of each panel). Relative numbers of cells (Y axis) in the different phases of the cell cycle are given on the right side of each panel."}
{"smiles": "NC(=O)NO", "note": "[hydroxyurea, reference compound]", "values": [{"measurement": "Effect on the cell cycle", "result": "S phase arrest"}]}
